In patent US9241958B2, “Anticoagulant antagonist and hemophilia procoagulant” (The Board of Trustees of the University of Illinois, priority 2007, dated 2016):

Legend:
fresh whole blood = assay: Whole blood thromboelastometry (ROTEM), clotting initiated with dilute thromboplastin; assay type: biochemical, human
Description: Thromboelastography was carried out using the ROTEM® four channel system (Pentapharm, Munich, Germany) using the supplied software package. Fresh, non-anticoagulated whole blood was collected via atraumatic venipuncture using a two-syringe technique. The initial 3 ml of blood was discarded and the blood sample to be used was then drawn into a 3 ml plain plastic syringe. The blood was immediately transferred to the supplied disposable plastic cups (280 μL per cup) and thoroughly mixed with 20 μL buffer (TBS: 50 mM Tris-HCl pH 7.4, 150 mM NaCl, 0.02% NaN3) or additives in TBS. Each fresh whole blood sample was divided into 4 cups containing the following: TBS only (control), polyP75, anticoagulant drug only, or both polyP75 and anticoagulant drug. Clotting was then initiated immediately via addition of 20 μL of tissue factor containing clotting reagent (INNOVIN® diluted in TBS). Thromboelastography measurement was initiated within 120 seconds of blood drawing for all samples. The final concentrations in the reaction were 87.5% whole blood, INNOVIN® diluted 1:17,000, 0 or 100 μM polyP, 0 or added anticoagulant drug (0.1 U/mL unfractionated heparin or 2.7 μg/mL enoxaparin or 1 μg/mL argatroban, or 0.2 μg/mL rivaroxaban). The measurements were continued for 2 hours and the clot time (CT), clot formation time (CFT), alpha angle (α angle), and maximum clot firmness (MCF) were recorded as supplied by the ROTEM® software. Each anticoagulant drug was added in vitro to whole blood from 5 different individuals.
(§1) Statistical analyses were performed using SigmaStat statistical software version 2.03 (SPSS, Inc). In all cases, two-tailed t-tests were conducted at the 0.05 level of significance. Clot times obtained using the Dilute PT Test with and without added polyP in plasma-based experiments were compared using unpaired t-tests. Results for each variable obtained from the ROTEM® experiments (CT, CFT, a angle, MCF) were compared separately. For each group of anticoagulants, parameters obtained for control blood samples were compared to those for blood+polyP, blood+anticoagulant, and blood+anticoagulant+polyP. The latter two samples were also directly compared. To account for inter-individual variation, thromboelstography parameters were compared using paired t-tests.

[1] = cited from earlier work
[2] = system: plasma from patients with hemophilia A (FVIII<1%); assay: Dilute PT Test, plasma clot time, hemophilia A patients; assay type: biochemical, human
Description: (§2) The following describes the use of the Dilute PT Test to evaluate the effectiveness of polyP in treat hemophilia and reversing the effects of anticoagulant drugs. Anticoagulant drugs were added to pooled normal plasma in vitro at concentrations of up 1 U/mL for unfractionated heparin, 100 μg/mL for enoxaparin, 3 μg/mL for argatroban, and 1 μg/mL for rivaroxaban. Plasma from a patient deficient in FVIII was evaluated with and without the addition of up to 0.5 μg/mL FVIII or 20 nM FVIIa. Plasma from a patient deficient in FIX was evaluated with and without the addition of up to 4 μg/mL FIX or 20 nM FVIIa. INR values for samples from patients receiving COUMADIN® ranged from 1.7 to 4.8.
(§3) Plasma clots were formed in 96-well medium binding polystyrene microplates (Corning Inc., Corning, N.Y.). Plasma (80 μL) was added to the well and clotting was initiated by addition of 160 uL of clotting reagent. The clotting reagent consisted of RecombiPlasTin (as a source of tissue factor) diluted 200 fold (for normal and anticoagulated plasmas) or 8000 fold (for hemophilia plasmas) into buffer containing 100 μM phospholipid vesicles (20% phosphatidylserine and 80% phosphatidylcholine made by sonication), 12.5 mM CaCl2, 25 mM Tris HCl pH 7.4, 0.1% bovine serum albumin, and 150 mM NaCl. Clotting reagent was divided into reagent without added polyP and reagent with added 100 μM polyP75.
(§4) Clotting was evaluated by monitoring the change in turbidity (A405) for 1 hour at room temperature using Softmax software and a Spectramax microplate reader (Molecular Devices Corporation, Sunnyvale, Calif.). […] All assays were repeated 5 times.
as §1

[3] = system: plasma from patients with hemophilia B (FIX<1%); assay: Dilute PT Test, plasma clot time, hemophilia B patients; assay type: biochemical, human
Description: as §2, §3, §4, §1

[4] = system: plasma from patients receiving COUMADIN®; assay: Dilute PT Test, plasma clot time, patients receiving COUMADIN; assay type: biochemical, human; conditions: 7 patients, INR 1.7 to 4.8; polyP75 added in vitro
Description: as §2
Plasma clots were formed in 96-well medium binding polystyrene microplates (Corning Inc., Corning, N.Y.). Plasma (80 μL) was added to the well and clotting was initiated by addition of 160 uL of clotting reagent. […]
Clotting was evaluated by monitoring the change in turbidity (A405) for 1 hour at room temperature using Softmax software and a Spectramax microplate reader (Molecular Devices Corporation, Sunnyvale, Calif.). […]

pooled normal plasma = assay: Dilute PT Test, plasma clot time, anticoagulants added in vitro; assay type: biochemical, human
Description: as §2, §3, §4, §1

thrombin = thrombin (Homo sapiens, UniProt P00734); assay: Studies with purified proteins: inactivation of thrombin by antithrombin; assay type: biochemical
factor V = factor V (Homo sapiens, UniProt P12259); assay: Studies with purified proteins: activation of factor V; assay type: biochemical
fibrinogen = biological target: T1, fibrinogen (Homo sapiens, UniProt P02671+P02675+P02679); assay: Clot structure of thrombin cleaved fibrinogen; assay type: biochemical
T1 sequence (P02671 20-644 isoform P02671-2 limits assumed): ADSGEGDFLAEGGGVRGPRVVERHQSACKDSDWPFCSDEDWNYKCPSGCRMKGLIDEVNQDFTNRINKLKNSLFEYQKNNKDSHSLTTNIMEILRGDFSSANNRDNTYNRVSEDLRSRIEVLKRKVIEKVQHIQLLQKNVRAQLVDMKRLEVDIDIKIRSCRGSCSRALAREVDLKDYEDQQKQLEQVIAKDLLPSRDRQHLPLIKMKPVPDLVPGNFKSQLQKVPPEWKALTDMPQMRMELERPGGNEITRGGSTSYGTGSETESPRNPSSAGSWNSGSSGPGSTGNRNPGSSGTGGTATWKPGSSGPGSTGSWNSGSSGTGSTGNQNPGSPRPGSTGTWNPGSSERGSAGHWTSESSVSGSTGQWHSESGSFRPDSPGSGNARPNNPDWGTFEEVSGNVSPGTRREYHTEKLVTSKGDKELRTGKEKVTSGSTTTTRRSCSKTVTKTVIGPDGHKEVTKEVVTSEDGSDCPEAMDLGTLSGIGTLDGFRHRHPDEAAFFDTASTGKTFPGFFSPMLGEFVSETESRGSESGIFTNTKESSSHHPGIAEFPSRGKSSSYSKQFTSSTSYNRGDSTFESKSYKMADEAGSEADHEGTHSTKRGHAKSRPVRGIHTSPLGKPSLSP
T1 sequence (P02675 31-491): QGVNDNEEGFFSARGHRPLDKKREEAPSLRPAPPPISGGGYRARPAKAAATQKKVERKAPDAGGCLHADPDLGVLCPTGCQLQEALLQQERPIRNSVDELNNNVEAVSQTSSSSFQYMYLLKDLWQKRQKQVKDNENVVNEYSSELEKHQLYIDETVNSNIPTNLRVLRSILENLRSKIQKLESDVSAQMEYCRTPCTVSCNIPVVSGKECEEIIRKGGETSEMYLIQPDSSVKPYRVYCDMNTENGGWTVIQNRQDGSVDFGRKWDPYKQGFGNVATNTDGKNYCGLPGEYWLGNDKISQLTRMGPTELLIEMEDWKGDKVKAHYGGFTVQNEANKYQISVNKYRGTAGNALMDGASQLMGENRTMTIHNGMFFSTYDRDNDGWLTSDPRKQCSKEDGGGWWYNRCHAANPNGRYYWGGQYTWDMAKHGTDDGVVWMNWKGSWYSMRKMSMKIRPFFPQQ
T1 sequence (P02679 27-437 isoform P02679-2 limits assumed): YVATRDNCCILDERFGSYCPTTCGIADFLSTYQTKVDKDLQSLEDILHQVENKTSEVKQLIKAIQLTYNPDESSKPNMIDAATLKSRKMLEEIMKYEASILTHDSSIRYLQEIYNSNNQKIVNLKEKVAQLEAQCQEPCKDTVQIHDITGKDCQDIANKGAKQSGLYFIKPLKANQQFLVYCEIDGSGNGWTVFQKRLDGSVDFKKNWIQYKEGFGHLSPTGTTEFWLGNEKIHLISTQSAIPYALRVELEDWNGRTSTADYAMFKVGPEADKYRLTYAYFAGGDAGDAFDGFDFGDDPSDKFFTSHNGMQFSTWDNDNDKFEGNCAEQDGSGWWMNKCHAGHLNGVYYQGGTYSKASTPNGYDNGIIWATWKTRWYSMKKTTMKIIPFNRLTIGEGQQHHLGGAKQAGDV

[5] = +Anticoagulant alone (0.1 U/mL unfractionated heparin, 2.7 μg/mL enoxaparin, 1 μg/mL argatroban or 0.2 μg/mL rivaroxaban)
[6] = +100 μM polyP, no anticoagulant, blood samples of the argatroban series
[7] = +100 μM polyP, no anticoagulant, blood samples of the enoxaparin series
[8] = +100 μM polyP, no anticoagulant, blood samples of the rivaroxaban series
[9] = +100 μM polyP, no anticoagulant, blood samples of the unfractionated heparin series
[10] = +Anticoagulant + polyP: 0.2 μg/mL rivaroxaban + 100 μM polyP
[11] = +Anticoagulant + polyP: 1 μg/mL argatroban + 100 μM polyP
[12] = +Anticoagulant + polyP: 2.7 μg/mL enoxaparin + 100 μM polyP
[13] = +Anticoagulant + polyP: 0.1 U/mL unfractionated heparin + 100 μM polyP

Sequence of factor V (P12259 29-2224): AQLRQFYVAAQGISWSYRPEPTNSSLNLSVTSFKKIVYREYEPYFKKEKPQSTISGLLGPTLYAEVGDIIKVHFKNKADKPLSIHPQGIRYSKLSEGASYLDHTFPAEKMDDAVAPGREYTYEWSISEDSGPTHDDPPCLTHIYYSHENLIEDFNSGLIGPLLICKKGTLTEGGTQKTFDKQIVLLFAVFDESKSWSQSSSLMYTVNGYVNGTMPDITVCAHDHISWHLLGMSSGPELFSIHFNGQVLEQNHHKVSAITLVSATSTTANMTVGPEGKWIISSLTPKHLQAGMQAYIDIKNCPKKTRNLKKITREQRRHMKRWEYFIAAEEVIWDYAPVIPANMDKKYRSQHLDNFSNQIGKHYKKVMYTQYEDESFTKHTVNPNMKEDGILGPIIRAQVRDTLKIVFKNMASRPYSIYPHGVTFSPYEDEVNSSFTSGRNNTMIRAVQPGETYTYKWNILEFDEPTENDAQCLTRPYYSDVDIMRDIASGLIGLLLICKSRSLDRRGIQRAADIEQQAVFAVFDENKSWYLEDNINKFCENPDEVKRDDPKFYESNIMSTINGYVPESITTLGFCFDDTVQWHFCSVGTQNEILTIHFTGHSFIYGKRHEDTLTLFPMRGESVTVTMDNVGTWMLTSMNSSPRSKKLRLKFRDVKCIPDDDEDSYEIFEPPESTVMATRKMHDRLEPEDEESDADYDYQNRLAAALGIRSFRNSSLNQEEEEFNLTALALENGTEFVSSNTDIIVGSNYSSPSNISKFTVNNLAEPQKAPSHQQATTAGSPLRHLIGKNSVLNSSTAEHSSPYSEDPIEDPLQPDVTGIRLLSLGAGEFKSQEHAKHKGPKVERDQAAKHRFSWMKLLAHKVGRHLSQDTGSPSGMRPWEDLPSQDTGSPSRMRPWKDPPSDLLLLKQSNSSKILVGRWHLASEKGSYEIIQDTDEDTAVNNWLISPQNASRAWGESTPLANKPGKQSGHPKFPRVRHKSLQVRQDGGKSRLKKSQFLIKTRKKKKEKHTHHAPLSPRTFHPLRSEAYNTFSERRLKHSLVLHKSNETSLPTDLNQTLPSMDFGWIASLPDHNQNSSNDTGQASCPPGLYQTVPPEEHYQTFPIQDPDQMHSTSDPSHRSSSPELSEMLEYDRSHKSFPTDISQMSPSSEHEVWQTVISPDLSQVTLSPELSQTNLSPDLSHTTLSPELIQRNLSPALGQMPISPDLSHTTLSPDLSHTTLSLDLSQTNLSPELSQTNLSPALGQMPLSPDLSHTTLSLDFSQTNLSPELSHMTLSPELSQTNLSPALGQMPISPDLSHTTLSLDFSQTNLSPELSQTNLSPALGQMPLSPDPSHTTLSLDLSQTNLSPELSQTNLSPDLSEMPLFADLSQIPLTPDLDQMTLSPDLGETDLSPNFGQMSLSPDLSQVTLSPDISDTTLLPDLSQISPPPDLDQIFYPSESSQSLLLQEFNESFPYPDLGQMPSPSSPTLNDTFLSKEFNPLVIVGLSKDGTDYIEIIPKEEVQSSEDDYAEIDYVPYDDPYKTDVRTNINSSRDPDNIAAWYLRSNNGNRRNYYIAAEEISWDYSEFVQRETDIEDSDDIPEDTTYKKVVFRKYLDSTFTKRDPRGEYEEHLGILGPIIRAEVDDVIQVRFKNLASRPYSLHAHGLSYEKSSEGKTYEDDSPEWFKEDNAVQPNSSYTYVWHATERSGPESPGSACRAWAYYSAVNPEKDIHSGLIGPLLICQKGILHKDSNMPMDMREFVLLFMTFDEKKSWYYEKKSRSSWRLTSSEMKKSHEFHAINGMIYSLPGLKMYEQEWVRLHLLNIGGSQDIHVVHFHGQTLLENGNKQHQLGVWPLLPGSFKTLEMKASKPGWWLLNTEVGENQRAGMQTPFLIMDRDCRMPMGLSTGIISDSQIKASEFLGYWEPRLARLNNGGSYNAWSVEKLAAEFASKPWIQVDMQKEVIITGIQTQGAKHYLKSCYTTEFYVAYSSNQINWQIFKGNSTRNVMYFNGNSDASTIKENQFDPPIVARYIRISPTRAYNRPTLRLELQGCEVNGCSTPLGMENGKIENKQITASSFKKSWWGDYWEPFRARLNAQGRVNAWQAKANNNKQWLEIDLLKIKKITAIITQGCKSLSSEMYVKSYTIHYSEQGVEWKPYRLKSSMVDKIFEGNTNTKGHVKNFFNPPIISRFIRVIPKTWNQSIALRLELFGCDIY

## O=C(NC[C@H]1CN(c2ccc(N3CCOCC3=O)cc2)C(=O)O1)c1ccc(Cl)s1 [Rivaroxaban, reference compound]
Fresh whole blood; [5]
  MCF: 54.8 mm
  α angle: 47.6 °
[1]; in a patient
  plasma half-life: 7 to 10 h

## CC1CNc2c(cccc2S(=O)(=O)N[C@@H](CCCNC(=N)N)C(=O)N2CC[C@@H](C)C[C@@H]2C(=O)O)C1 (some centres unmarked) [Argatroban, reference compound]
Fresh whole blood; [5]
  MCF: 49.4 mm
  α angle: 38.8 °
[1]; human, in vivo
  therapeutic plasma concentration: about 1 μg/ml

## Polyphosphate
[2]; 5 patients with severe hemophilia A, polyP75 added in vitro
  effect on plasma clot time: decreased the plasma clot time
[2]; FVIII deficiency, polyP alone vs FVIII restored to normal plasma concentration
  shortening of plasma clot time compared with factor replacement: greater degree than did restoring the missing clotting factor
[2]; FVIII-deficient plasma, all rFVIIa concentrations evaluated
  procoagulant effect in combination with rFVIIa: additive
[2]; FVIII-deficient plasma, polyP alone
  rFVIIa concentration giving similar shortening of plasma clot time: ~15 nM
[2]; severe hemophilia A plasma in the presence of polyP
  clotting of patient plasma with polyP compared with pooled normal plasma: clotted more rapidly than did pooled normal plasma without polyP
[3]; 4 patients with severe hemophilia B, polyP75 added in vitro
  effect on plasma clot time: decreased the plasma clot time
[3]; FIX deficiency, polyP alone vs FIX restored to normal plasma concentration
  shortening of plasma clot time compared with factor replacement: greater degree than did restoring the missing clotting factor
[3]; FIX-deficient plasma, all rFVIIa concentrations evaluated
  procoagulant effect in combination with rFVIIa: additive
[3]; FIX-deficient plasma, polyP alone
  rFVIIa concentration giving similar shortening of plasma clot time: ~6 nM
[3]; severe hemophilia B plasma in the presence of polyP
  clotting of patient plasma with polyP compared with pooled normal plasma: clotted more rapidly than did pooled normal plasma without polyP
[4]
  effect on plasma clot time: shortened, but did not completely normalize
Fresh whole blood; [6]
  MCF: 62.2 mm
  α angle: 69.0 °
Fresh whole blood; [7]
  MCF: 64.8 mm
  α angle: 71.0 °
Fresh whole blood; [8]
  MCF: 64.0 mm
  α angle: 70.0 °
Fresh whole blood; [9]
  MCF: 63.0 mm
  α angle: 69.6 °
Fresh whole blood; [10]
  MCF: 63.6 mm
  α angle: 67.4 °
Fresh whole blood; [11]
  MCF: 59.4 mm
  α angle: 56.4 °
Fresh whole blood; [12]
  MCF: 59.8 mm
  α angle: 60.4 °
Fresh whole blood; [13]
  MCF: 52.4 mm
  α angle: 46.8 °
Fresh whole blood; blood containing argatroban
  effect of polyP on CT, in words: shortened but did not entirely normalize
Fresh whole blood; blood containing enoxaparin
  effect of polyP on thromboelastography parameters, in words: normalized all parameters
Fresh whole blood; blood containing rivaroxaban
  effect of polyP on thromboelastography curve, in words: complete reversal of anticoagulation
Fresh whole blood; blood containing unfractionated heparin
  effect of polyP on CT, in words: shortened, but did not completely normalize
Pooled normal plasma; both types of heparin, decreased slope of the dose-response curve, 67 μM polyP75
  reversal of the effective dose of heparins: approximately 50%
Pooled normal plasma; plasma with low molecular weight heparin (enoxaparin), all concentrations evaluated (20-100 μg/mL), 67 μM polyP75
  shortening of clot time by polyP: approximately 50%
Pooled normal plasma; plasma with rivaroxaban, all concentrations tested (0.2-1 μg/mL), 67 μM polyP75
  shortening of clot time by polyP: approximately 80%
Pooled normal plasma; plasma with supratherapeutic argatroban (1-3 μg/ml) + polyP
  argatroban level giving equivalent prolongation of clot time: less than 0.5 μg/ml
Pooled normal plasma; plasma with unfractionated heparin, all concentrations evaluated (0.2-1 U/mL), 67 μM polyP75
  shortening of clot time by polyP: approximately 50%
Pooled normal plasma; unfractionated heparin, enoxaparin, argatroban, rivaroxaban, 67 μM polyP75
  effect on anticoagulant effect of drugs added in vitro to normal plasma: antagonized the anticoagulant effect of all four drugs
thrombin
  effect on ability of antithrombin to inactivate thrombin: neither enhanced nor blocked
  effect on ability of heparin to accelerate inactivation of thrombin by antithrombin: did not enhance or block
Factor V
  effect on activation of factor V by thrombin or factor Xa: accelerate the activation of factor V
fibrinogen
  effect on fibrin clot structure: thicker fibrin fibers that are more resistant to fibrinolysis
